PMC4976923, “Potent Allosteric Dengue Virus NS5 Polymerase Inhibitors: Mechanism of Action and Resistance Profiling” (PLoS Pathogens, 2016)

Columns and labels:
DENV1, strain MY97-10245 = details: A549; 48 hr; read-out: DENV1 HCI, EC50; cited from earlier work
DENV4, strain MY01-22713 = details: A549; 48 hr; read-out: DENV4 HCI, EC50 (converted); cited from earlier work
[1] = tested on: DENV2-NGC Ren-LUC Replicon in BHK21; assay: Stable BHK21 DENV2-NGC renilla luciferase replicon assay; type: cell-based; details: Dengue virus, DENV2, BHK-21; 48 hr
DENV4 FL NS5 L512V/Q802N = target: T1, DENV4 FL NS5 L512V/Q802N (Dengue virus type 4, UniProt P09866, L2999V/Q3290N); type: binding; details: 50 µM compound; for Protein melting temperature, Tm, DENV4 FL NS5 L512V/Q802N: DMSO 36
T1 construct: made in house

DENV2-NGC virus L512V = type: cell-based; details: A549, MOI = 0.2; 48 hr; plaque assay
DENV3 strain MY05-34640 = details: A549; 48 hr; read-out: DENV3 HCI, EC50 (converted); cited from earlier work
DENV4 RdRp = DENV4 RdRp (Dengue virus type 4, UniProt P09866); assay: Surface plasmon resonance binding assay (Biacore T200)
DENV2 FL NS5 L511V = target: T2, DENV2 FL NS5 L511V (Dengue virus type 2, UniProt P14340, L3003V); type: binding; details: 50 µM compound; for Protein melting temperature, Tm, DENV2 FL NS5 L511V: DMSO 35.5
T2 construct: Recombinant DENV2 (A, C) and DENV4 (B, D) FL NS5 proteins bearing single or double amino acid changes; made in house

DENV2-NGC replicon L512V = type: cell-based; details: electroporated BHK-21; 2 days
[2] = tested on: DENV2-NGC EGFP Replicon in BHK21; assay: Stable BHK21 DENV2-NGC EGFP replicon assay; type: cell-based; details: Dengue virus, DENV2, BHK-21; 48 hr
[3] = tested on: Control DENV2-NGC EGFP-replicon cells passaged in DMSO; assay: Control DENV2-NGC EGFP-replicon cells passaged in DMSO; type: cell-based; details: Dengue virus, DENV2, 48 h; 2 days
[4] = tested on: DENV2-NGC virus L512V/E802D; type: cell-based; details: A549, MOI = 0.2; 48 hr; plaque assay
DENV2 FL NS5 L511V/E802D = target: T3, DENV2 FL NS5 L511V/E802D (Dengue virus type 2, UniProt P14340, E3293D/L3003V); type: binding; details: 50 µM compound; for Protein melting temperature, Tm, DENV2 FL NS5 L511V/E802D: DMSO 35
T3 construct: Recombinant DENV2 (A, C) and DENV4 (B, D) FL NS5 proteins bearing single or double amino acid changes; made in house

DENV4 FL NS5 Q802N = target: T4, DENV4 FL NS5 Q802N (Dengue virus type 4, UniProt P09866, Q3290N); type: binding; details: 50 µM compound; for Protein melting temperature, Tm, DENV4 FL NS5 Q802N: DMSO 37
T4 construct: made in house

DENV2-NGC replicon E802D = type: cell-based; details: electroporated BHK-21; 2 days
DENV3 FL NS5 = target: T5, DENV3 FL NS5 (Dengue virus type 3, UniProt Q6YMS4); assay: DENV3 FL NS5 de novo initiation FAPA assay; type: biochemical; details: one experiment; read-out: DENV FL NS5 de novo initiation FAPA, IC50, DENV3
T5 construct: 100 nM DENV FL NS5 protein was added; made in house
Description: (§1) DENV1-4 FL NS5 dnI assays were performed as described previously. Briefly, compounds from 0–20 or -100 μM concentrations are two-fold serially diluted into 384-well black opaque plates (Corning Costar), after which 100 nM DENV FL NS5 protein was added and the plates incubated at RT for 20 min. RNA and ATTO-CTP, ATP, GTP and UTP were then added and the plates incubated for another 120 min. Reactions were stopped with buffer containing 25 nM CIP, re- incubated at RT for 60 min and read on a Tecan Safire II microplate reader. For order-of-addition experiments, DENV4 FL NS5 was incubated for one hour at RT with RNA, ATP, and GTP or RNA, ATP, GTP and ATTO-CTP, followed by exposure to serially diluted compounds for 20 min at RT. The missing components (ATTO-CTP and UTP or UTP alone) were added and the reactions continued for 120 min after which STOP buffer was added as before. All datapoints were performed in duplicate wells. Each compound was tested at least twice.
(§2) 2 Co mpound testing with DENV dn I FAPA assays. Final dn I assa y reaction mixtures
(§3) 3 contained 100 nM DENV 5 ´UTR-L-3´UTR IVT RNA, 20 µ M ATP, 20 µM GTP, 20 µM
(§4) 4 UTP, 5 µM ATTO -CTP, and 100 nM of DENV FL NS5 protein in 15 µl in assa y buffer
(§5) 5 comprising 50 mM Tris/ HCl, pH 7.5, 10 mM KCl, 1 mM MgCl2, 0.3 mM MnCl2 (DENV2
(§6) 6 and 4) or 1 mM MnCl 2 (DENV1 and 3), 0.001% Triton- X-100 and 10 µ M cystein e [ 1] . To
(§7) 7 perform dose-respons e inhibition measurements, compounds from 0- 20 or - 100 µM
(§8) 8 concentr ations are two -fold seriall y diluted into 384-well black opaqu e plat es (Corning
(§9) 9 Costar), after which 100 nM DENV FL NS5 protein was added into resp ect ive wells. The
(§10) 10 plates wer e sealed, b riefl y shak en and centrif uged at 1500 rpm for 30 sec and incubated at RT
(§11) 11 for 15 min. Thereafter,RNA and ATTO -CTP, ATP, GTP and UTP were added to the wells to
(§12) 12 start the reactions. The pl ates wer e re-seal ed, shaken and centrifuged as before, followed b y
(§13) 13 incubation RT for 120 min. Reactions were stopped by addition of 10 µl of 2.5X STOP
(§14) 14 buffer (200 mM NaCl, 25 mM MgCl2, 1.5M DEA, pH 10; Promega) with 25 nM calf
(§15) 15 intestinal phosphatase (CIP), re- incubation at RT for 60 min and read on a Tecan Safire II
(§16) 16 microplate reader. For o r der-of-addition experiments, DENV4 FL NS5 was incubated for one
(§17) 17 hour at RT with RNA, ATP, and GTP or RNA, ATP, GTP and ATTO-CTP, followed by
(§18) 18 exposure to seriall y dilut ed compounds for 20 mi n at RT. The missing components (ATTO-
(§19) 19 CTP and UTP or UTP alone) were added and the reactions continued for 120 min after which
(§20) 20 STOP buffer was added as before. All datapoints were performed in duplicate wells. Each
(§21) 21 compound was tested at l east twice.
(§22) 23 Compound testing in DENV1-4 infected cells by high content imaging. Approximatel y 7
(§23) 24 × 10^3 A549 cells per well were s eeded into 384-well plates in Ham’s F-12K medium

DENV1 FL NS5 = target: T6, DENV1 FL NS5 (Dengue virus type 1, UniProt P17763); assay: DENV1 FL NS5 de novo initiation FAPA assay; type: biochemical; details: one experiment; read-out: DENV FL NS5 de novo initiation FAPA, IC50, DENV1
T6 construct: 100 nM DENV FL NS5 protein was added; made in house
Description: as §1, §2, §3, §4, §5, §6, §7, §8, §9, §10, §11, §12, §13, §14, §15, §16, §17, §18, §19, §20, §21, §22, §23

| Structure (SMILES) | EC50 (DENV1, strain MY97-10245) | EC50 (DENV4, strain MY01-22713) | EC50 [1] | Tm change compared to DMSO control, DENV4 FL NS5 L512V/Q802N (DENV4 FL NS5 L512V/Q802N) | Protein melting temperature, Tm, DENV4 FL NS5 L512V/Q802N (DENV4 FL NS5 L512V/Q802N) | EC50 (DENV2-NGC virus L512V) | EC50 (DENV3 strain MY05-34640) | SPR % Rmax (DENV4 RdRp) | Tm change compared to DMSO control, DENV2 FL NS5 L511V (DENV2 FL NS5 L511V) | Protein melting temperature, Tm, DENV2 FL NS5 L511V (DENV2 FL NS5 L511V) | EC50 (DENV2-NGC replicon L512V) | EC50 [2] | EC50 [3] | EC50 [4] | Tm change compared to DMSO control, DENV2 FL NS5 L511V/E802D (DENV2 FL NS5 L511V/E802D) | Protein melting temperature, Tm, DENV2 FL NS5 L511V/E802D (DENV2 FL NS5 L511V/E802D) | Tm change compared to DMSO control, DENV4 FL NS5 Q802N (DENV4 FL NS5 Q802N) | Protein melting temperature, Tm, DENV4 FL NS5 Q802N (DENV4 FL NS5 Q802N) | EC50 (DENV2-NGC replicon E802D) | IC50 (DENV3 FL NS5) | also measured |
| --- | --- | --- | --- | --- | --- | --- | --- | --- | --- | --- | --- | --- | --- | --- | --- | --- | --- | --- | --- | --- | --- |
| COc1cccc(S(=O)(=O)NC(=O)c2cc(-c3ccc(C#CCO)s3)c(OC)cc2OC)c1 [Compound 27] | 1.8 ± 0.1 µM | 1.8 ± 0.2 µM | 3 µM | -1 °C | 35 °C | 2.2 µM | 1800 ± 500 nM | 66.8% | 0 °C | 35.5 °C | 25.9 µM | 3.5 µM | 2.46 µM | 2.32 µM | 0 °C | 35 °C | 0.5 °C | 37.5 °C | 12.8 µM |  |  |
| COc1cccc(S(=O)(=O)NC(=O)c2cc(-c3ccc(C#CCO)s3)c(OC)cc2C)c1 [Compound 26i] |  |  |  |  |  |  |  |  |  |  |  |  |  |  |  |  |  |  |  | 54 nM | IC50 (DENV1 FL NS5): 24 nM |
| COc1cc(OC)c(-c2ccc(C#CCO)s2)cc1C(=O)NS(=O)(=O)c1cccc2cccnc12 [Compound 29] | 6.3 ± 0.9 µM | 10.2 µM | 4.6 µM | -0.5 °C | 35.5 °C | 6 µM | 3800 nM | 20.9% | 1.0 °C | 36.5 °C | 32.3 µM | 5.8 µM | 3.55 µM | 7.01 µM | 0.5 °C | 35.5 °C | 1.5 °C | 38.5 °C | 21.4 µM | 16 nM | IC50 (DENV1 FL NS5): 13 nM |
